Format in all cases: in vivo, human
Experiment [1] concerns taste panelists. Nature of the experiment: Inherent sweetness, two-alternative forced choice sip and spit (2AFC) vs 1.5% sucrose control. The settings on record: control 1.5% sucrose, n=30. How it is done:
The inherent sweetness of Compounds (1), (2), and (3) as perceived by human subjects was evaluated using a two-alternative forced choice “sip and spit” method (2AFC). The 2AFC test used for compound evaluation was a double-blinded and randomized test where taste panelists (n=30) evaluated a pair of sweetener solutions at a time—one sample is a 1.5% sucrose control, while the other is an aqueous solution containing a test compound at the indicated concentration. Panelists were instructed not to eat or drink (except water) for at least 1 hour before the test. During the test panelists were instructed to sip each sample, swirl it around their mouth and then expectorate. […] Panelists cleansed their palates by rinsing with water, eating a cracker and waiting for an interval of about 5 minutes. All samples were tested at ambient temperatures.

The subject of experiment [2] is taste panelists. In words: Sweetness enhancing effect with rebaudioside M, 2AFC sip and spit test. To be noted: control 100 ppm Reb M solution, n=30. On the procedure:
(§1) The sweetness enhancing effect of Compounds (1), (2), and (3) when used with certain sweeteners (specifically, sucrose or rebaudioside M) was evaluated using a two-alternative forced choice “sip and spit” method (2AFC). The 2AFC test used for compound evaluation was a double-blinded and randomized test where taste panelists (n=30) evaluated a pair of sweetener solutions at a time—one sample contains aqueous sweetener solution plus compound (test sample), while the other contains the aqueous sweetener solution without compound (control). Each test sample was compared against a positive control. For example, if the test sample contained 5% sucrose solution with Compound (1), the positive control contained a 5% sucrose solution (i.e., without Compound (1)). Panelists were instructed not to eat or drink (except water) for at least 1 hour before the test. During the test panelists were instructed to sip each sample, swirl it around their mouth and then expectorate. After tasting each sample in the pair, panelists were instructed to record the sample that is “sweeter” in taste. Panelists cleansed their palates by rinsing with water, eating a cracker and waiting for an interval of about 5 minutes. All samples were tested at ambient temperatures.

Experiment [3] concerns taste panelists. Nature of the experiment: Sweetness enhancing effect with sucrose, 2AFC sip and spit test. To be noted: control 5% sucrose solution, n=30. How it is done: as §1
Where [4] appears, read: compound 20 ppm in aqueous solution.
Setting [5] is: compound 50 ppm in aqueous solution.
Setting [6] is: compound 80 ppm in aqueous solution.
[7] abbreviates: compound 20 ppm in 100 ppm Reb M solution.

Molecules are shown by their SMILES.

Regarding `COc1cc(C2CC(=O)Oc3cccc(O)c32)ccc1O` (stereo not drawn) [Compound (3), 5-hydroxy-4-(4-hydroxy-3-methoxyphenyl)chroman-2-one], the “panelists who chose Sample as comparable in sweetness to Control” value (shortened to “panelists who chose Sample as comparable”) is given as 2 of 30 panelists chose Sample as in experiment [1] (setting [4]), 2 of 30 panelists chose Sample as in experiment [1] (setting [5]) and 1 of 30 panelists chose Sample as in experiment [1] (setting [6]). The “panelists who chose Sample as sweeter than Control” value is reported as 20 of 30 panelists in experiment [2] (compound 40 ppm in 100 ppm Reb M solution) and 28 of 30 panelists in experiment [3] (compound 20 ppm in 5% sucrose solution).
As for `COc1cc(C2CC(=O)Oc3ccc(O)c(C)c32)ccc1O` (stereo not drawn) [Compound (2), 6-hydroxy-4-(4-hydroxy-3-methoxyphenyl)-5-methylchroman-2-one], the “panelists who chose Sample as comparable” value in experiment [1] (setting [4]), in experiment [1] (setting [5]) and in experiment [1] (setting [6]) was 1 of 30 panelists chose Sample as throughout. Further, the “panelists who chose Sample as sweeter than Control” value is listed as 30 of 30 panelists in experiment [2] (setting [7]) and 29 of 30 panelists in experiment [3] (compound 40 ppm in 5% sucrose solution).
For `Cc1cc(O)c2c(c1)OC(=O)CC2c1ccc(O)c(O)c1` (stereo not drawn) [Compound (1), 4-(3,4-dihydroxyphenyl)-5-hydroxy-7-methylchroman-2-one], the “panelists who chose Sample as comparable” value in experiment [1] (setting [4]) is reported as 1 of 30 panelists chose Sample as; in experiment [1] (setting [5]), 2 of 30 panelists chose Sample as; in experiment [1] (setting [6]), 2 of 30 panelists chose Sample as. For the same molecule, the “panelists who chose Sample as sweeter than Control” value in experiment [2] (setting [7]) was 29 of 30 panelists. Further, the “panelists who chose Test Sample as sweeter than Control” value in experiment [3] (compound 60 ppm in 5% sucrose solution) is recorded as 21 of 30 panelists.

The record behind these values is patent publication US20230363424A1, “COMPOUNDS AND METHODS FOR ENHANCING SWEETNESS OF SWEETENERS” (Conagen Inc., priority 2021, published 2023).
